EC50 data for 9 compounds are collected here from US20220162191A1, “SMALL MOLECULE MODULATORS OF IL-17” (LEO PHARMA A/S, priority 2019, published 2022).

This test has as its target T1, human IL-17AA (Homo sapiens, UniProt Q16552).
T1 construct: host or cells: HEK (human embryonic kidney) cells
T1 sequence (Q16552 24-155) 1: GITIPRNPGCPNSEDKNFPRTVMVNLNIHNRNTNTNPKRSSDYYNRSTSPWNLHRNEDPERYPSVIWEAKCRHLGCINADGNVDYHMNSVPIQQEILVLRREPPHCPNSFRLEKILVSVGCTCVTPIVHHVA
T1 sequence (Q16552 24-155) 2: T1 sequence (Q16552 24-155) 1
Briefly: IL-8 release assay in human epithelial keratinocytes adult (HEKa). Format: cell-based. Particulars: 3 ng/ml human IL-17AA + 10 ng/ml human TNFalpha, 68-72 h, IL-8 by HTRF, read-out: Rel EC50 L-8 release assay. In outline:
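Adult human keratinocytes in Epilife with HKGS minus hydrocortisone, treated with compound then stimulated with final 3 ng/ml HEK-derived human IL-17AA plus 10 ng/ml TNF-alpha for 68–72 h at 37 °C; TNF-alpha alone defines 100% inhibition. Secreted IL-8 by HTRF; relative IC50 and Emax from four-parameter fits.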
In general terms: Time-resolved FRET reads energy transfer from a long-lived donor to a nearby acceptor.

As usually defined, the EC50 is the concentration that produces a half-maximal response. In the case of `Cc1cnn(C)c1-c1ccc(NC(=O)[C@@H](NC(=O)C2(F)CC2)[C@@H]2CCc3ccc(-c4cnnc(C5CC5)c4)cc32)cc1` [Example 385, N-[(1S)-1-[(1R)-6-(6-cyclopropylpyridazin-4-yl)indan-1-yl]-2-[4-(2,4-dimethylpyrazol-3-yl)anilino]-2-oxo-ethyl]-1-fluoro-cyclopropanecarboxamide], the EC50 fell in the range of 100 to 1000 nM.

With `Cc1n[nH]c(C)c1-c1ccc(NC(=O)[C@@H](NC(=O)C2(F)CC2)[C@H](C)c2cccc(-c3ccnc(N4C[C@@H]5C[C@H]4CO5)c3)c2)cc1` [Example 341, N-[(1S,2R)-1-[[4-(3,5-dimethyl-1H-pyrazol-4-yl)phenyl]carbamoyl]-2-[3-[2-[(1S,4S)-2-oxa-5-azabicyclo[2.2.1]heptan-5-yl]-4-pyridyl]phenyl]propyl]-1-fluoro-cyclopropanecarboxamide], the EC50 was less than 100 nM.

With `Cc1n[nH]c(C)c1-c1ccc(NC(=O)[C@H](Cc2cc(-c3cccc(CN)c3)ccc2Cl)NC(=O)c2ccnn2C)cc1` [Example 61, N-[(1S)-1-[[5-[3-(aminomethyl)phenyl]-2-chloro-phenyl]methyl]-2-[4-(3,5-dimethyl-1H-pyrazol-4-yl)anilino]-2-oxo-ethyl]-2-methyl-pyrazole-3-carboxamide], the EC50 lay in the range of 100 to 1000 nM.

On to `CC(C)n1cc(-c2ccc(Cl)c(C[C@H](NC(=O)C3CC3(C)C)C(=O)Nc3ccc(-c4nncn4C)cc3)c2)ccc1=O` (stereo partly drawn) [Example 154, N-[(1S)-1-[[2-chloro-5-(1-isopropyl-6-oxo-3-pyridyl)phenyl]methyl]-2-[4-(4-methyl-1,2,4-triazol-3-yl)anilino]-2-oxo-ethyl]-2,2-dimethyl-cyclopropanecarboxamide], for which the EC50 was greater than 1000 nM.

Turning to `Cn1cncc1-c1ccc(NC(=O)C(Cc2cc(-c3ccnc(N4CC5(COC5)C4)c3)ccc2Cl)NC(=O)c2ccnn2C)cc1` (stereo not drawn) [Example 183, N-[1-[[2-chloro-5-[2-(6-oxa-2-azaspiro[3.3]heptan-2-yl)-4-pyridyl]phenyl]methyl]-2-[4-(3-methylimidazol-4-yl)anilino]-2-oxo-ethyl]-2-methyl-pyrazole-3-carboxamide], the EC50 lay in the range of 100 to 1000 nM.

Regarding `CC(C)c1cc(-c2ccc(Cl)c(C[C@H](NC(=O)c3ccnn3C)C(=O)Nc3ccc(-c4cncn4C)cc3)c2)ncn1` [Example 205, N-[(1S)-1-[[2-chloro-5-(6-isopropylpyrimidin-4-yl)phenyl]methyl]-2-[4-(3-methylimidazol-4-yl)anilino]-2-oxo-ethyl]-2-methyl-pyrazole-3-carboxamide], the EC50 lay within 100 to 1000 nM.

In the case of `CC(C)n1cc(-c2ccc3c(c2)[C@H]([C@H](NC(=O)c2ccnn2C)C(=O)Nc2ccc(-c4cncn4C)c(O)c2)CCC3)ccc1=O` [Example 49, N-[(1S)-2-[3-hydroxy-4-(3-methylimidazol-4-yl)anilino]-1-[(1R)-7-(1-isopropyl-6-oxo-3-pyridyl)tetralin-1-yl]-2-oxo-ethyl]-2-methyl-pyrazole-3-carboxamide], the EC50 is less than 100 nM.

As for `Cn1cnnc1-c1ccc(NC(=O)C(Cc2cc(-c3cccc(C(C)(C)CO)c3)ccc2Cl)NC(=O)c2ccnn2C)cc1` (stereo not drawn) [Example 164, N-[1-[[2-chloro-5-[3-(2-hydroxy-1,1-dimethyl-ethyl)phenyl]phenyl]methyl]-2-[4-(4-methyl-1,2,4-triazol-3-yl)anilino]-2-oxo-ethyl]-2-methyl-pyrazole-3-carboxamide], the EC50 was in the range of 100 to 1000 nM.

Turning to `Cc1n[nH]c(C)c1-c1ccc(NC(=O)[C@@H](NC(=O)c2ccnn2C)[C@@H]2CCCc3ccc(-c4ccc5c(c4)CN(C)C5)cc32)cc1` [Example 37, N-[(1S)-2-[4-(3,5-dimethyl-1H-pyrazol-4-yl)anilino]-1-[(1R)-7-(2-methylisoindolin-5-yl)tetralin-1-yl]-2-oxo-ethyl]-2-methyl-pyrazole-3-carboxamide], the EC50 was less than 100 nM.
